Tests used:
[1] = human
[2] = human; remark: listed apart in the source
[3] = Highest frequency of acute liver toxicity observed during clinical trials, expressed as a percentage. [column '% AIGUE' in source]; conditions: human
[4] = human, serum
[5] = human; remark: listed apart in the source
[6] = human; remark: listed apart in the source
[7] = human; remark: listed apart in the source
[8] = human; remark: listed apart in the source
[9] = human, serum, 4383 h
[10] = Highest frequency of moderate liver toxicity observed during clinical trials, expressed as a percentage. [column '% BIOL' in source]; conditions: human
[11] = human; remark: listed apart in the source
[12] = human; remark: listed apart in the source
[13] = human, serum; remark: listed apart in the source
[14] = Times to onset, minimal and maximal, observed in the indexed observations. [column 'DELAI' in source]; conditions: human
[15] = human; remark: listed apart in the source
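Throughout, for Hepatotoxicity (association with vascular disease): count of indexed literature references reporting vascular liver injury in humans, e.g. peliosis hepatitis, hepatic veno-occlusive disease or Budd-Chiari syndrome.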
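Throughout, for Hepatotoxicity (benign tumour): value is a count of indexed literature references citing a benign tumour confirmed by histopathology.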
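Throughout, for Hepatotoxicity (choleostasis): human cholestatic liver injury, shown by histopathology or by peak ALT or AST elevation over alkaline phosphatase ratio below 2, value counts indexed literature reports.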
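Throughout, for Hepatotoxicity (chronic liver disease): chronic liver injury confirmed by histopathology or persistently raised serum aminotransferase activity beyond 6 months, value given as the count of indexed literature references.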
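Throughout, for Hepatotoxicity (cirrhosis): value is a count of indexed literature references reporting cirrhosis confirmed by histopathology.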
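Throughout, for Hepatotoxicity (cytolytic): human cytolytic liver injury, shown by histopathology or by a ratio above 5 of peak ALT or AST elevation to alkaline phosphatase elevation, value counts indexed references.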
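Throughout, for Hepatotoxicity (granulomatous hepatitis): value is a count of indexed literature references reporting granulomatous liver disease confirmed by histopathology.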
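Throughout, for Hepatotoxicity (malignant tumour): malignant tumour confirmed by histopathology, value gives the count of indexed literature references reporting it.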
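Throughout, for Hepatotoxicity (severe hepatitis): human clinical data: severe hepatitis, meaning potentially life-threatening liver failure or clinically observed cases, the value counts how many indexed literature references report it.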
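Throughout, for Hepatotoxicity (steatosis): steatosis confirmed by histopathology, value is the count of indexed references.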

C=CC(N)CCC(=O)O (stereo not given) [VIGABATRIN]
Hepatotoxicity (choleostasis) [1]: 0 | Hepatotoxicity (cytolytic) [2]: 2 | Hepatotoxicity (acute) [3]: 0% | Hepatotoxicity (acute) [4]: 2 | Hepatotoxicity (cirrhosis) [5]: 0 | Hepatotoxicity (granulomatous hepatitis) [6]: 0 | Hepatotoxicity (association with vascular disease) [7]: 0 | Hepatotoxicity (malignant tumour) [8]: 0 | Hepatotoxicity (chronic liver disease) [9]: 0 | Hepatotoxicity (moderate) [10]: 13.3% | Hepatotoxicity (severe hepatitis) [11]: 1 | Hepatotoxicity (benign tumour) [12]: 0 | Hepatotoxicity (moderate) [13]: 3 | Hepatotoxicity (time to onset) [14]: 9 months | Hepatotoxicity (steatosis) [15]: 0

CCC1=C[C@@H]2CN(C1)Cc1c([nH]c3ccccc13)[C@@](C(=O)OC)(c1cc3c(cc1OC)N(C)[C@H]1[C@@](O)(C(=O)OC)[C@H](OC(C)=O)[C@]4(CC)C=CCN5CC[C@]31[C@@H]54)C2 [VINORELBINE]
Hepatotoxicity (choleostasis) [1]: 0 | Hepatotoxicity (cytolytic) [2]: 2 | Hepatotoxicity (acute) [3]: 6% | Hepatotoxicity (acute) [4]: 3 | Hepatotoxicity (cirrhosis) [5]: 0 | Hepatotoxicity (granulomatous hepatitis) [6]: 0 | Hepatotoxicity (association with vascular disease) [7]: 0 | Hepatotoxicity (malignant tumour) [8]: 0 | Hepatotoxicity (chronic liver disease) [9]: 0 | Hepatotoxicity (moderate) [10]: 24.1% | Hepatotoxicity (severe hepatitis) [11]: 1 | Hepatotoxicity (benign tumour) [12]: 0 | Hepatotoxicity (moderate) [13]: 6 | Hepatotoxicity (time to onset) [14]: 2 days - 10 days | Hepatotoxicity (steatosis) [15]: 0

CCOC(Nc1ccc(C(=O)O)cc1)C(=O)c1ccc(-c2ccccc2)cc1 (stereo not given) [XENAZOIC ACID]
Hepatotoxicity (choleostasis) [1]: 0 | Hepatotoxicity (cytolytic) [2]: 0 | Hepatotoxicity (acute) [3]: 0% | Hepatotoxicity (acute) [4]: 2 | Hepatotoxicity (cirrhosis) [5]: 0 | Hepatotoxicity (granulomatous hepatitis) [6]: 0 | Hepatotoxicity (association with vascular disease) [7]: 0 | Hepatotoxicity (malignant tumour) [8]: 0 | Hepatotoxicity (chronic liver disease) [9]: 0 | Hepatotoxicity (moderate) [10]: 0% | Hepatotoxicity (severe hepatitis) [11]: 0 | Hepatotoxicity (benign tumour) [12]: 0 | Hepatotoxicity (moderate) [13]: 0 | Hepatotoxicity (time to onset) [14]: 1 week - 2 weeks | Hepatotoxicity (steatosis) [15]: 0

Nc1ccn([C@H]2CC[C@@H](CO)O2)c(=O)n1 [ZALCITABINE]
Hepatotoxicity (choleostasis) ([1]; Liver): 0 | Hepatotoxicity (cytolytic) ([2]; Liver): 3 | Hepatotoxicity (acute) ([3]; Liver): 8.5% | Hepatotoxicity (acute) [4]: 4 | Hepatotoxicity (cirrhosis) [5]: 0 | Hepatotoxicity (granulomatous hepatitis) ([6]; Liver): 0 | Hepatotoxicity (association with vascular disease) [7]: 0 | Hepatotoxicity (malignant tumour) [8]: 0 | Hepatotoxicity (chronic liver disease) [9]: 0 | Hepatotoxicity (moderate) ([10]; Liver): 14.9% | Hepatotoxicity (severe hepatitis) ([11]; Liver): 0 | Hepatotoxicity (benign tumour) [12]: 0 | Hepatotoxicity (moderate) [13]: 5 | Hepatotoxicity (time to onset) [14]: 3 weeks - 10 months | Hepatotoxicity (steatosis) [15]: 2

CC(=O)N[C@H]1[C@H]([C@H](O)[C@H](O)CO)OC(C(=O)O)=C[C@@H]1N=C(N)N [ZANAMIVIR]
Hepatotoxicity (choleostasis) [1]: 0 | Hepatotoxicity (cytolytic) [2]: 0 | Hepatotoxicity (acute) [3]: 0% | Hepatotoxicity (acute) [4]: 0 | Hepatotoxicity (cirrhosis) [5]: 0 | Hepatotoxicity (granulomatous hepatitis) [6]: 0 | Hepatotoxicity (association with vascular disease) [7]: 0 | Hepatotoxicity (malignant tumour) [8]: 0 | Hepatotoxicity (chronic liver disease) [9]: 0 | Hepatotoxicity (moderate) [10]: 14.5% | Hepatotoxicity (severe hepatitis) [11]: 0 | Hepatotoxicity (benign tumour) [12]: 0 | Hepatotoxicity (moderate) [13]: 2 | Hepatotoxicity (time to onset) [14]: 8 days | Hepatotoxicity (steatosis) [15]: 0

CN1CCN(C(=O)OC2c3nccnc3C(=O)N2c2ccc(Cl)cn2)CC1 (stereo not given) [ZOPICLONE]
Hepatotoxicity (choleostasis) [1]: 1 | Hepatotoxicity (cytolytic) [2]: 1 | Hepatotoxicity (acute) [3]: 0% | Hepatotoxicity (acute) [4]: 1 | Hepatotoxicity (cirrhosis) [5]: 0 | Hepatotoxicity (granulomatous hepatitis) [6]: 0 | Hepatotoxicity (association with vascular disease) [7]: 0 | Hepatotoxicity (malignant tumour) [8]: 0 | Hepatotoxicity (chronic liver disease) [9]: 0 | Hepatotoxicity (moderate) [10]: 0% | Hepatotoxicity (severe hepatitis) [11]: 0 | Hepatotoxicity (benign tumour) [12]: 0 | Hepatotoxicity (moderate) [13]: 0 | Hepatotoxicity (time to onset) [14]: 6 months | Hepatotoxicity (steatosis) [15]: 0

COLESTIPOL
Hepatotoxicity (choleostasis) [1]: 0 | Hepatotoxicity (cytolytic) [2]: 1 | Hepatotoxicity (acute) [3]: 0% | Hepatotoxicity (acute) [4]: 1 | Hepatotoxicity (cirrhosis) [5]: 0 | Hepatotoxicity (granulomatous hepatitis) [6]: 0 | Hepatotoxicity (association with vascular disease) [7]: 0 | Hepatotoxicity (malignant tumour) [8]: 0 | Hepatotoxicity (chronic liver disease) [9]: 0 | Hepatotoxicity (moderate) [10]: 0.8% | Hepatotoxicity (severe hepatitis) [11]: 0 | Hepatotoxicity (benign tumour) [12]: 0 | Hepatotoxicity (moderate) [13]: 1 | Hepatotoxicity (time to onset) [14]: 6 months | Hepatotoxicity (steatosis) [15]: 0

DALTEPARIN SODIUM
Hepatotoxicity (choleostasis) [1]: 0 | Hepatotoxicity (cytolytic) [2]: 0 | Hepatotoxicity (acute) [3]: 0% | Hepatotoxicity (acute) [4]: 0 | Hepatotoxicity (cirrhosis) [5]: 0 | Hepatotoxicity (granulomatous hepatitis) [6]: 0 | Hepatotoxicity (association with vascular disease) [7]: 0 | Hepatotoxicity (malignant tumour) [8]: 0 | Hepatotoxicity (chronic liver disease) [9]: 0 | Hepatotoxicity (moderate) [10]: 2.6% | Hepatotoxicity (severe hepatitis) [11]: 0 | Hepatotoxicity (benign tumour) [12]: 0 | Hepatotoxicity (moderate) [13]: 3 | Hepatotoxicity (time to onset) [14]: 4 days | Hepatotoxicity (steatosis) [15]: 0

IVERMECTIN
Hepatotoxicity (choleostasis) [1]: 0 | Hepatotoxicity (cytolytic) [2]: 0 | Hepatotoxicity (acute) [3]: 0% | Hepatotoxicity (acute) [4]: 0 | Hepatotoxicity (cirrhosis) [5]: 0 | Hepatotoxicity (granulomatous hepatitis) [6]: 0 | Hepatotoxicity (association with vascular disease) [7]: 0 | Hepatotoxicity (malignant tumour) [8]: 0 | Hepatotoxicity (chronic liver disease) [9]: 0 | Hepatotoxicity (moderate) [10]: 23.3% | Hepatotoxicity (severe hepatitis) [11]: 0 | Hepatotoxicity (benign tumour) [12]: 0 | Hepatotoxicity (moderate) [13]: 5 | Hepatotoxicity (time to onset) [14]: 2 days - 1 week | Hepatotoxicity (steatosis) [15]: 0

MEGLUMINE ANTIMONATE
Hepatotoxicity (choleostasis) [1]: 0 | Hepatotoxicity (cytolytic) [2]: 0 | Hepatotoxicity (acute) [3]: 0% | Hepatotoxicity (acute) [4]: 1 | Hepatotoxicity (cirrhosis) [5]: 0 | Hepatotoxicity (granulomatous hepatitis) [6]: 0 | Hepatotoxicity (association with vascular disease) [7]: 0 | Hepatotoxicity (malignant tumour) [8]: 0 | Hepatotoxicity (chronic liver disease) [9]: 0 | Hepatotoxicity (moderate) [10]: 6% | Hepatotoxicity (severe hepatitis) [11]: 0 | Hepatotoxicity (benign tumour) [12]: 0 | Hepatotoxicity (moderate) [13]: 3 | Hepatotoxicity (time to onset) [14]: 6 hours - 6 days | Hepatotoxicity (steatosis) [15]: 0

MUROMONAB-CD3
Hepatotoxicity (choleostasis) [1]: 0 | Hepatotoxicity (cytolytic) [2]: 1 | Hepatotoxicity (acute) [3]: 0% | Hepatotoxicity (acute) [4]: 1 | Hepatotoxicity (cirrhosis) [5]: 0 | Hepatotoxicity (granulomatous hepatitis) [6]: 0 | Hepatotoxicity (association with vascular disease) [7]: 0 | Hepatotoxicity (malignant tumour) [8]: 0 | Hepatotoxicity (chronic liver disease) [9]: 0 | Hepatotoxicity (moderate) [10]: 0% | Hepatotoxicity (severe hepatitis) [11]: 0 | Hepatotoxicity (benign tumour) [12]: 0 | Hepatotoxicity (moderate) [13]: 0 | Hepatotoxicity (time to onset) [14]: 1 days | Hepatotoxicity (steatosis) [15]: 0

— ChEMBL document CHEMBL3137667, “[Drug-induced liver injury; fourteenth updated edition of the bibliographic database of liver injuries and related drugs]” (Gastroenterol Clin Biol, 2004)
